Data taken from patent US20240376051A1, “CRYSTALLINE FORM OF PYRROLE AMIDE COMPOUND, PREPARATION METHOD THEREFOR AND USE THEREOF” (SUNSHINE LAKE PHARMA CO., LTD., priority 2021, published 2024).
Read-outs that look alike come from different tables or passages of the source. Values belong to the molecule of their own block, whether it stands above or below them.

Experiments:
[1] = Hygroscopicity experiment (dynamic moisture adsorption, DVS); type: physicochemical; settings: for The hygroscopicity feature: Chinese Pharmacopoeia 2020 definition, 25°C±1°C, 80%±2% relative humidity; for Weight gain at 60% relative humidity/% / Weight gain at 80% relative humidity/% / Weight gain at 95% relative humidity/%: DVS, 25°C
Method: The hygroscopicity of the present invention was measured by a DVS INT-Std dynamic moisture and gas adsorption analyzer from Surface Measurement Systems, UK. The humidity test range: 0%-95%, air flow: 200 mL/min, temperature: 25° C., test point: every 5% increase in humidity to take a test point.
Test samples: crystalline form I prepared by referring to any method of Example 2, and amorphous form prepared by referring to Example 1.
An appropriate amount of the test sample was taken, and the hygroscopicity was tested by a dynamic moisture adsorption device. The description of the hygroscopicity feature and the definition of the hygroscopicity gain (Chinese Pharmacopoeia 2020 edition. Appendix 9103 Guidelines for drug dampness test, experimental, conditions: 25° C.±1° C. 80%±2% relative humidity) as described in Table 6 below: […]

[2] = Stability experiment: light test; type: physicochemical; settings: for Appearance / Total impurity %: 25°C, white light 4990 lux; for Total impurity %: HPLC
Method: (§1) Test samples: crystalline form I was prepared by referring to any method of Example 2, and amorphous form was prepared by referring to Example 1.
• (3) Light test: an appropriate amount of the test sample was taken into a flat weighing bottle, spread into a thin layer with a thickness of ≤5 mm. The samples were placed in a light box (with a UV lamp) and placed under the conditions of 25° C., white light 4990 lux, and UV 1.4 W·h/m^2 for 30 days. The samples were taken for testing on the 5th, 10th, and 30th day. The color change of the samples was observed. The purity of the samples was determined by HPLC.

[3] = Pharmacokinetic experiment, oral capsule in Beagle dogs; type: in vivo; settings: 5 mg/kg; for AUClast / Cmax / Tmax: male Beagle dogs
Method: The crystalline form I prepared by referring to any method of Example 2 was filled into capsules, which are used for oral administration.
8-12 kg Male Beagle dogs were divided into 2 groups, and 3 in each group. Each Beagle dog was orally administered the capsule containing the test sample at a dose of 5 mg/kg, and blood was collected at time points of 0.25, 0.5, 1.0, 2.0, 4.0, 6.0, 8.0 and 24 hours. Standard curve was plotted based on concentrations of the samples in a suitable range, the concentration of the test sample in the plasma sample was measured and quantified by AB SCIEX API4000 LC-MS/MS at MRM mode. Pharmacokinetic parameters were calculated according to drug concentration-time curve using a noncompartmental method by WinNonLin 6.3 software.
A pharmacokinetic experiment of the amorphous form prepared with reference to Example 1 was carried out according to the above method, and the results are shown in Table 1.

[4] = Stability experiment: high humidity test; type: physicochemical; settings: for Appearance / Total impurity %: 25°C, RH 90%±5%; for Total impurity %: HPLC
Method: as §1
(§2) • (2) High humidity test: an appropriate amount of the test sample was taken into a flat weighing bottle, spread into a thin layer with a thickness of ≤5 mm. The samples were placed at 25° C. and RH for 90%±5% for 30 days. The samples were taken for testing according to the key stability inspection items on the 5th, 10th, and 30th day. The color change of the samples was observed. The purity of the samples was determined by HPLC.

[5] = Stability experiment: accelerated test; type: physicochemical; settings: for Total impurity % / Appearance: 40±2°C/75%±5% RH; for Total impurity %: HPLC; for Appearance: PE package plus aluminum foil
Method: as §1
• (4) Accelerated test: an appropriate amount of crystalline form I test samples in a single-layer PE package plus aluminum foil packaging was stored for 6 months under the conditions of 40±2° C./75%±5% RH. Samples were taken for testing in the 1st, 2nd, 3rd and 6th month. The color change of the samples was observed. The purity of the samples was determined by HPLC.

[6] = Stability experiment: high temperature test; type: physicochemical; settings: for Appearance / Total impurity %: 60°C±2°C; for Total impurity %: HPLC
Method: as §1
as §2, with “The following tests of test samples were carried out: •” for “•”, “(1)” for “(2)”, “temperature” for “humidity”, “60° C.±2°” for “25°”, “C.” for “C. and RH for 90%±5%”

- The hygroscopicity feature [1]: no or almost no hygroscopicity
- Weight gain at 60% relative humidity/% [1]: 0.120%
- Weight gain at 80% relative humidity/% [1]: 0.185%
- Weight gain at 95% relative humidity/% [1]: 0.304%
- Appearance ([2]; UV 1.4 W·h/m^2, 0 day): White
- Total impurity % ([2]; UV 1.4 W·h/m^2, 0 day): 0.34%
- Appearance ([2]; UV 1.4 W·h/m^2, 5 days): White
- Total impurity % ([2]; UV 1.4 W·h/m^2, 5 days): 0.34%
- Appearance ([2]; UV 1.4 W·h/m^2, 10 days): White
- Total impurity % ([2]; UV 1.4 W·h/m^2, 10 days): 0.32%
- Appearance ([2]; UV 1.4 W·h/m^2, 30 days): White
- Total impurity % ([2]; UV 1.4 W·h/m^2, 30 days): 0.49%
- change of appearance and purity ([2]; light, 30 days): no obvious changes
- AUClast [3]: 42300 ng·h/mL
- Cmax ([3]; male, Beagle, dog, plasma, po, read-out: Cmax): 1450 ng/mL
- Tmax ([3]; male, Beagle, dog, plasma, po, read-out: Tmax): 4 h
- Appearance ([4]; 0 day): White
- Total impurity % ([4]; 0 day): 0.34%
- Appearance ([4]; 5 days): White
- Total impurity % ([4]; 5 days): 0.35%
- Appearance ([4]; 10 days): White
- Total impurity % ([4]; 10 days): 0.36%
- Appearance ([4]; 30 days): White
- Total impurity % ([4]; 30 days): 0.34%
- change of appearance and purity ([4]; high humidity (25°C, RH 90%±5%), 30 days): no obvious changes
- Total impurity % ([5]; 0 day): 0.78%
- Total impurity % ([5]; 1 month): 0.72%
- Total impurity % ([5]; 2 months): 0.73%
- Total impurity % ([5]; 3 months): 0.73%
- Total impurity % ([5]; 6 months): 0.71%
- Appearance ([5]; 0 day): White
- Appearance ([5]; 1 month): White
- Appearance ([5]; 2 months): White
- Appearance ([5]; 3 months): White
- Appearance ([5]; 6 months): White
- change of appearance and purity ([5]; accelerated test conditions, 6 months): do not change significantly
- Appearance ([6]; 0 day): White
- Total impurity % ([6]; 0 day): 0.34%
- Appearance ([6]; 5 days): White
- Total impurity % ([6]; 5 days): 0.36%
- Appearance ([6]; 10 days): White
- Total impurity % ([6]; 10 days): 0.34%
- Appearance ([6]; 30 days): White
- Total impurity % ([6]; 30 days): 0.34%
- change of appearance and purity ([6]; high temperature (60°C), 30 days): no obvious changes
Structure (SMILES): Cc1c(C(=O)Nc2ccc(S(C)(=O)=O)c(F)c2)cn(CCO)c1-c1ccccc1C(F)(F)F [Crystalline form I, (S)-1-(2-hydroxyethyl)-4-methyl-N-(3-fluoro-4-(methylsulfonyl)phenyl)-5-(2-(trifluoromethyl)phenyl)-1H-pyrrole-3-carboxamide]
- exposure and blood drug concentration compared with the amorphous form ([3]; Beagle dogs): higher exposure and blood drug concentration than the amorphous form

- The hygroscopicity feature [1]: slight hygroscopicity
- Weight gain at 60% relative humidity/% [1]: 1.401%
- Weight gain at 80% relative humidity/% [1]: 1.826%
- Weight gain at 95% relative humidity/% [1]: 2.707%
- Appearance ([2]; UV 1.4 W·h/m^2, 0 day): Off-white
- Total impurity % ([2]; UV 1.4 W·h/m^2, 0 day): 0.40%
- Total impurity % ([2]; UV 1.4 W·h/m^2, 5 days): 0.85%
- Total impurity % ([2]; UV 1.4 W·h/m^2, 10 days): 1.79%
- Total impurity % ([2]; UV 1.4 W·h/m^2, 30 days): 3.47%
- AUClast [3]: 20900 ng·h/mL
- Cmax [3]: 913 ng/mL
- Tmax [3]: 3.33 h
- Appearance ([4]; 0 day): Off-white
- Total impurity % ([4]; 0 day): 0.40%
- Appearance ([4]; 5 days): Off-white
- Total impurity % ([4]; 5 days): 0.47%
- Appearance ([4]; 10 days): Off-white
- Total impurity % ([4]; 10 days): 0.53%
- Appearance ([4]; 30 days): Off-white
- Total impurity % ([4]; 30 days): 0.57%
- Appearance ([6]; 0 day): Off-white
- Total impurity % ([6]; 0 day): 0.40%
- Appearance ([6]; 5 days): Off-white
- Total impurity % ([6]; 5 days): 0.46%
- Appearance ([6]; 10 days): Off-white
- Total impurity % ([6]; 10 days): 0.55%
- Appearance ([6]; 30 days): Off-white
- Total impurity % ([6]; 30 days): 1.28%
Structure (SMILES): Cc1c(C(=O)Nc2ccc(S(C)(=O)=O)c(F)c2)cn(CCO)c1-c1ccccc1C(F)(F)F [Amorphous form, (S)-1-(2-hydroxyethyl)-4-methyl-N-(3-fluoro-4-(methylsulfonyl)phenyl)-5-(2-(trifluoromethyl)phenyl)-1H-pyrrole-3-carboxamide]
